This note sets out measurements from patent publication US20240425515A1, “COMPOUND OF THE 7A,8,9,10,11,11A-HEXAHYDRO-1H,7H-PYRANO[2,3-C]XANTHENE TYPE, METHOD OF PREPARATION THEREOF, INTERMEDIATES THEREOF AND THERAPEUTIC APPLICATIONS THEREOF” (CENTRE NATIONAL DE LA RECHERCHE SCIENTIFIQUE, priority 2021, published 2024).

Data set [1] deals with human glioblastoma cells U87-MG. Description: Cytotoxicity on U87-MG, CellTiter Glo viability after 72 h. As to conditions: U-87 MG. The data set is classed as cell-based. Here is the method:
(§1) The lines U87-MG and A549 were obtained from the American Type Culture Collection (Rockville, MD, USA) and were cultured according to the supplier's instructions. The human glioblastoma cells U87-MG were cultured in Dulbecco […] (DMEM) containing 10% of FCS and 1% of L-glutamine. The lung cancer cells A549 were cultured in RPMI1640 medium containing 10% of FCS and 1% of L-glutamine. The cell lines were maintained at 37° C. in a humidified atmosphere containing 5% CO2. The products were tested at 10 concentrations in triplicate and the cellular viability was evaluated after 72 h of treatment using the CellTiter Glo assay (Promega), which allows the number of live cells to be measured by luminescence (quantification of ATP).
(§2) Thus, the cells were seeded in 96-well plates (2.5×10^3 cells/well) each containing 90 μL of growth medium. After culture for 24 hours, the wells were supplemented with 10 μL of medium containing ten decreasing concentrations of the test compound dissolved in DMSO (less than 0.1% in each preparation). After incubation for 72 h, 100 μL of Cell Titer GLo reagent was added in the space of 15 min before quantifying the luminescence emitted using a microplate reader. The dose-response curve was analyzed using Graph Prism software and the activity of the molecules is expressed in the form of IC50.

For data set [2], the system named is lung cancer cells A549. Description: Cytotoxicity on A549, CellTiter Glo viability after 72 h. The data set is classed as cell-based. Particulars: Homo sapiens, A549, 72 h. The protocol: as §1, §2
Data set [3] addresses ORD domain (OSBP-Related Domain) of the protein OSBP (Homo sapiens (Human), UniProt P22059). Description: Inhibition of DHE transport between liposomes catalyzed by the purified ORD domain of OSBP (FRET, robotized assay). Format: biochemical. As to conditions: purified ORD domain 200 nM, liposomes 130 μM, 37° C., compound 50 nM to 3 μM, triplicate; read-out: Affinity for the target OSBP (Ki). Here is the method: Measurement of the inhibitory activity on OSBP is carried out by a robotized assay in the ORD domain (OSBP-Related Domain, in English) purified of the protein OSBP. The measurements are carried out according to a protocol using two preparations of liposomes: • The donor liposomes (A) contain a fluorescent sterol (DHE (dehydroergosterol)); • The acceptor liposomes (B) contain a fluorescent lipid (dansyl PE (1,2-dioleoyl-sn-glycero-3-phosphoethanolamine-N-(5-dimethylamino-1-naphthalenesulfonyl) (ammonium salt)) whose excitation spectrum covers the emission spectrum of DHE.
Transport of DHE from liposomes A to liposomes B catalyzed by the ORD domain is accompanied by a FRET signal between DHE and Dansyl-PE. Based on this signal, the kinetics of transport can be measured in real time. This measurement of fluorescence is carried out on a microplate in a TECAN Infinite 1000 Pro instrument (temperature=37° C.). At the beginning, each measurement well contains liposomes B (130 μM), ORD domain (200 nM) and the test compound. At time t=5 min, liposomes A (130 μM) are added to start the exchange reaction. Each compound is tested in triplicate for final concentrations from 50 nM to 3 μM. The time constant (k) obtained for the kinetics in each case is then represented as a function of the concentration of the analog. From this representation, an inhibition constant is determined for each compound. The affinity constants Ki are classified as follows: • Very strong affinity Ki<10 nM • Good affinity Ki from 10 to 100 nM • Low affinity Ki from 100 to 2000 nM
The compounds, other than the prodrugs, having a Ki<100 nM are regarded as active on OSBP.

Data set [4] in a line: Metabolic stability in mouse hepatic microsomes (LC-MS/MS). Format: in vitro ADME. Particulars: mouse microsomes 0.5 mg/mL, 2.5 μM, NADPH. Here is the method:
(§3) The compounds are placed in mouse plasma and mouse microsomes, and their stability is evaluated by monitoring by UPLC-MS/MS.
(§4) For plasma stability, the concentration tested is 2.5 μM and the incubation volume is 50 μL. The incubation times are 0, 15, 30, 45, 60 and 120 minutes. Protein precipitation is then performed on the samples, and then the latter are analyzed by UPLC-MS/MS. The percentage of the compound remaining as well as its elimination half-life are thus obtained. For the metabolic stability in microsomes, the concentration of test compound is 2.5 μM, and the incubation volume is 400 μL. The concentration of mouse microsomes is 0.5 mg/mL. The incubation times are 0, 15, 30 and 45 minutes. The cofactor used is NADPH. Two negative controls are carried out, one without microsomes and without cofactor at 0 and 45 minutes, and one without cofactor and with microsome at 0 and 45 minutes. A positive control is carried out in the presence of diphenhydramine. The samples are analyzed by LC-MS/MS. The intrinsic clearance and the half-life are thus obtained.
(§5) LC-MS/MS is carried out on a UPLC Acquity™ coupled to a XEVO TQ-S(WATERS).
(§6) Liquid chromatography is carried out on an Acquity UPLC column BEH 1.7 μm, 2.1×50 mm with a gradient of 4 minutes water+0.1% […]/acetonitrile 95:5 to 100:0. The column temperature is +50° C. and the temperature of the injector is +4° C. Acquisition in mass spectrometry is performed by MRM (Multiple Reaction Monitoring), with positive electrospray ionization.

A short description of data set [5]: Stability in mouse plasma (UPLC-MS/MS). Particulars: 2.5 μM. Format: in vitro ADME. The protocol: as §3, §4, §5, §6

Chain of ORD domain (OSBP-Related Domain) of the protein OSBP (P22059 401-807): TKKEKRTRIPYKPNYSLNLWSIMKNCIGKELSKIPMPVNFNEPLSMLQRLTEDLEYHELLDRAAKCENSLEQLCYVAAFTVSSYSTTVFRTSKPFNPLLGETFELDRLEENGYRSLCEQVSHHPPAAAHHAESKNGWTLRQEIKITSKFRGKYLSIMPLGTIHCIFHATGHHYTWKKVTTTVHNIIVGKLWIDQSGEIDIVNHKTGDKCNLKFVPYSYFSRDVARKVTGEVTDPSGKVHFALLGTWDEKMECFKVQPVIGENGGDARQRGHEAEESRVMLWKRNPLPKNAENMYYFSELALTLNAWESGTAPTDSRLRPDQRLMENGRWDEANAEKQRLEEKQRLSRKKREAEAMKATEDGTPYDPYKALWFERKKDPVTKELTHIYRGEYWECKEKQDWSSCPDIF

Regarding `COCOc1cc2oc(-c3ccccc3)cc(=O)c2c2c1C[C@@H]1C(C)(C)[C@H](O)CC[C@@]1(C)O2` (racemic) [Compound 1, (7aR*9R*,11aR*)-9-hydroxy-6-(methoxymethoxy)-8,8,11a-trimethyl-3-phenyl-7a,8,9,10,11,11a-hexahydro-1H,7H-pyrano[2,3-c]xanthen-1-one], the IC50 was 540 nM in data set [1] and 5080 nM in data set [2]. For the same compound, the inhibition constant Ki in data set [3] was less than 10 nM.
For `COCOc1cc2oc(-c3ccccc3)cc(=O)c2c2c1C[C@@H]1C(C)(C)[C@H](OCOC)CC[C@@]1(C)O2` (racemic) [Compound 2, (7aR*,9R*,11aR*)-6,9-bis(methoxymethoxy)-8,8,11a-trimethyl-3-phenyl-7a,8,9,10,11,11a-hexahydro-1H,7H-pyrano[2,3-c]xanthen-1-one], the IC50 in data set [1] and in data set [2] was more than 10000 nM throughout. Further, the Ki in data set [3] lay within 100 to 2000 nM.
Take `CC1(C)[C@H](O)CC[C@@]2(C)Oc3c(c(O)cc4oc(-c5ccccc5)cc(=O)c34)C[C@H]12` (racemic) [Compound 3, (7aR*,9R*,11aR*)-6,9-dihydroxy-8,8,11a-trimethyl-3-phenyl-7a,8,9,10,11,11a-hexahydro-1H,7H-pyrano[2,3-c]xanthen-1-one]: in data set [1], the IC50 was determined as 340 nM. In addition, it took 3400 nM to reach half-maximal inhibition in data set [2] (IC50). In addition, in data set [4], the “clearance in microsomal medium (intrinsic clearance)” value (from here on “clearance in microsomal medium”) is given as 152 μL/min/mg of protein and the “metabolic stability in mouse microsomes” value is 88%. Further, in data set [3], the Ki is less than 10 nM. Besides, the “metabolic stability in mouse plasma at 120 minutes (percentage of compound remaining)” value in data set [5] stood at 99%.
In data set [1], `COCOc1cc2oc(-c3ccccc3)cc(=O)c2c2c1C[C@@H]1C(C)(C)[C@H](O)CC[C@@]1(C)O2` [Compound 4, (7aR,9R,11aR)-9-hydroxy-6-(methoxymethoxy)-8,8,11a-trimethyl-3-phenyl-7a,8,9,10,11,11a-hexahydro-1H,7H-pyrano[2,3-c]xanthen-1-one] displayed a half-maximal inhibitory concentration (IC50) of 440 nM. Further, the Ki in data set [3] was in the range of 10 to 100 nM.
Consider `CC1(C)[C@H](O)CC[C@@]2(C)Oc3c(c(O)cc4oc(-c5ccccc5)cc(=O)c34)C[C@H]12` [Compound 5, (7aR,9R,11aR)-6,9-dihydroxy-8,8,11a-trimethyl-3-phenyl-7a,8,9,10,11,11a-hexahydro-1H,7H-pyrano[2,3-c]xanthen-1-one], for which the IC50 in data set [1] stood at 280 nM; in data set [2], 1380 nM. For the same compound, the Ki in data set [3] was less than 10 nM.
On to `COCOc1cc2oc(-c3ccccc3)cc(=O)c2c2c1C[C@H]1C(C)(C)[C@@H](O)CC[C@]1(C)O2` [Compound 6, (7aS,9S,11aS)-9-hydroxy-6-(methoxymethoxy)-8,8,11a-trimethyl-3-phenyl-7a,8,9,10,11,11a-hexahydro-1H,7H-pyrano[2,3-c]xanthen-1-one], for which the IC50 in data set [1] is 4310 nM; in data set [2], more than 10000 nM. The Ki in data set [3] was 100 to 2000 nM.
Regarding `CC1(C)[C@@H](O)CC[C@]2(C)Oc3c(c(O)cc4oc(-c5ccccc5)cc(=O)c34)C[C@@H]12` [Compound 7, (7aS,9S,11aS)-6,9-dihydroxy-8,8,11a-trimethyl-3-phenyl-7a,8,9,10,11,11a-hexahydro-1H,7H-pyrano[2,3-c]xanthen-1-one], the IC50 in data set [1] came to 1890 nM. Also, the Ki in data set [3] was less than 10 nM.
The compound `COCOc1ccc(-c2cc(=O)c3c4c(c(OCOC)cc3o2)C[C@@H]2C(C)(C)[C@H](O)CC[C@@]2(C)O4)cc1` [Compound 8, (7aR,9R,11aR)-9-hydroxy-6-(methoxymethoxy)-3-(4-(methoxymethoxy)phenyl)-8,8,11a-trimethyl-7a,8,9,10,11,11a-hexahydro-1H,7H-pyrano[2,3-c]xanthen-1-one] displayed an IC50 in data set [1] of 160 nM. The Ki in data set [3] lay within 10 to 100 nM.
In the case of `CC1(C)[C@H](O)CC[C@@]2(C)Oc3c(c(O)cc4oc(-c5ccc(O)cc5)cc(=O)c34)C[C@H]12` [Compound 9, (7aR,9R,11aR)-6,9-dihydroxy-3-(4-hydroxyphenyl)-8,8,11a-trimethyl-7a,8,9,10,11,11a-hexahydro-1H,7H-pyrano[2,3-c]xanthen-1-one], the IC50 in data set [1] was 3780 nM. In data set [4], the “clearance in microsomal medium” value is 26 μL/min/mg of protein and the “metabolic stability in mouse microsomes” value worked out at 100%. In addition, the “metabolic stability in mouse plasma at 120 minutes (percentage of compound remaining)” value in data set [5] is on record as 100%.
Consider `COCOc1ccc(-c2oc3cc(OCOC)c4c(c3c(=O)c2OCOC)O[C@]2(C)CC[C@@H](O)C(C)(C)[C@H]2C4)cc1` [Compound 10, (7aR,9R,11aR)-9-hydroxy-2,6-bis(methoxymethoxy)-3-(4-(methoxymethoxy)phenyl). 8,8,11a-trimethyl-7a,8,9,10,11,11a-hexahydro-1H,7H-pyrano[2,3-c]xanthen-1-one], for which 4340 nM corresponded to half-maximal inhibition in data set [1] (IC50). In data set [4], the “clearance in microsomal medium” value was 52 μL/min/mg of protein and the “metabolic stability in mouse microsomes” value was found to be 99%. Further, in data set [5], the “metabolic stability in mouse plasma at 120 minutes (percentage of compound remaining)” value is 90%.
As for `CC1(C)[C@H](O)CC[C@@]2(C)Oc3c(c(O)cc4oc(-c5ccc(O)cc5)c(O)c(=O)c34)C[C@H]12` [Compound 11, (7aR,9R,11aR)-2,6,9-trihydroxy-3-(4-hydroxyphenyl)-8,8,11a-trimethyl-7a,8,9,10,11,11a-hexahydro-1H,7H-pyrano[2,3-c]xanthen-1-one], the IC50 in data set [1] stood at 2300 nM; in data set [2], 6300 nM.
